In patent US6949542B2, “Dihydro-benzo[b][1,4]diazepin-2-one derivatives” (Hoffman-La Roche Inc., priority 2002, dated 2005):

Columns and labels:
rat mGlu2 receptor = molecular target: T1, rat mGlu2 receptor (Rattus norvegicus, UniProt P31421); assay: [3H]-LY354740 binding on mGlu2 transfected CHO cell membranes; conditions: inhibition of 10 nM [3H]-LY354740 binding, mGlu2 transfected CHO cell membranes, room temperature, 1 hour; read-out: Ki mGlu2
T1 construct: expressed in transfected cells; vector pcD1mGR2
T1 sequence (P31421 19-872): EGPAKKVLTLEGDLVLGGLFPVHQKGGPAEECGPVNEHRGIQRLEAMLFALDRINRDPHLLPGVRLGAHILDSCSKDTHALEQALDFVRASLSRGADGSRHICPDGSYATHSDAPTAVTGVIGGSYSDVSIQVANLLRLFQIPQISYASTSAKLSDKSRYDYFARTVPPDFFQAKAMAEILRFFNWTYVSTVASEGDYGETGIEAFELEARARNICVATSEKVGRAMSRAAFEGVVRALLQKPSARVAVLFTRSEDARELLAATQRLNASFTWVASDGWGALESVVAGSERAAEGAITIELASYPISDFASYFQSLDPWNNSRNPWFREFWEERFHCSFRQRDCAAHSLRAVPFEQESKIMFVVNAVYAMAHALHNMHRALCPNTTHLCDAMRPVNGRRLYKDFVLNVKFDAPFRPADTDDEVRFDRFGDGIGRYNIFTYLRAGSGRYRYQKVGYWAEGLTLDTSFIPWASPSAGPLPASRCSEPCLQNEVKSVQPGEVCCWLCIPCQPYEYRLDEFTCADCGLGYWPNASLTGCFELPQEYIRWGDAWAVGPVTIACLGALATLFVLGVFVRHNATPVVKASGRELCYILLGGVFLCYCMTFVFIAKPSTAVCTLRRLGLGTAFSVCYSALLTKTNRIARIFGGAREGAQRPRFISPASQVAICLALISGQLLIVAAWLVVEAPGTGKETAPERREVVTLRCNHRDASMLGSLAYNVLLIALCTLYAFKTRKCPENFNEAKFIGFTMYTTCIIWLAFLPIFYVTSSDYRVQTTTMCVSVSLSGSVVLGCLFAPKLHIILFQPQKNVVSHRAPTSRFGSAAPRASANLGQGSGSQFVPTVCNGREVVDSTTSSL

Ki (rat mGlu2 receptor) | melting point | SMILES
1.8 nM | – | Cc1cc(-c2cccc(C3=Nc4ccc(-c5ccccc5F)cc4NC(=O)C3)c2)ccn1 [Example 72, 8-(2-Fluoro-phenyl)-4-[3-(2-methyl-pyridin-4-yl)-phenyl]-1,3-dihydro-benzo[b][1,4]diazepin-2-one]
32.6 nM | – | O=C1CC(c2cccc(-c3ccccn3)c2)=Nc2ccc(-n3cccc3)cc2N1 [Example 54, 4-(3-Pyridin-2-yl-phenyl)-8-pyrrol-1-yl-1,3-dihydro-benzo[b][1,4]diazepin-2-one]
6 nM | – | CN(C)c1cc2c(cc1C(F)(F)F)NC(=O)CC(c1cccc(-c3ccncc3)c1)=N2 [Example 4, 7-Dimethylamino-4-(3-pyridin-4-yl-phenyl)-8-trifluoromethyl-1,3-dihydro-benzo[b][1,4]diazepin-2-one]
5 nM | – | Cc1cc2c(cc1C(F)(F)F)NC(=O)CC(c1ccnc(-c3cccnc3)c1)=N2 [Example 290, 4-[2,3′]Bipyridinyl-4-yl-7-methyl-8-trifluoromethyl-1,3-dihydro-benzo[b][1,4]diazepin-2-one]
1.35 nM | – | O=C1CC(c2cccc(-c3cccnc3)c2)=Nc2cc(Cl)c(Cl)cc2N1 [Example 1, 7,8-Dichloro-4-(3-pyridin-3-yl-phenyl)-1,3-dihydro-benzo[b][1,4]diazepin-2-one]
– | 215 °C | CCOc1cc2c(cc1C(F)(F)F)NC(=O)CC(c1cccc(-c3ccnc(N4CCCC4)c3)c1)=N2 [Example 390, 7-Ethoxy-4-[3-(2-pyrrolidin-1-yl-pyridin-4-yl)-phenyl]-8-trifluoromethyl-1,3-dihydro-benzo[b][1,4]diazepin-2-one]
– | 218 °C | Cc1cc2c(cc1Cl)N=C(c1cccc(-c3cnccn3)c1)CC(=O)N2 [Example 103, 7-Chloro-8-methyl-4-(3-pyrazin-2-yl-phenyl)-1,3-dihydro-benzo[b][1,4]diazepin-2-one]
– | 223 °C | Cc1cc2c(cc1C(F)(F)F)NC(=O)CC(c1cccc(-c3ccnnc3)c1)=N2 [Example 49, 7-Methyl-4-(3-pyridazin-4-yl-phenyl)-8-trifluoromethyl-1,3-dihydro-benzo[b][1,4]diazepin-2-one]
– | 230 to 232 °C | Cc1nccc(-c2cccc(C3=Nc4cc(C)c(C(F)(F)F)cc4NC(=O)C3)c2)n1 [Example 301, 7-Methyl-4-[3-(2-methyl-pyrimidin-4-yl)-phenyl]-8-trifluoromethyl-1,3-dihydro-benzo[b][1,4]diazepin-2-one]
– | 215 °C | Cc1cc(-c2cccc(C3=Nc4cc(N(C)CC(C)C)c(C(F)(F)F)cc4NC(=O)C3)c2)cc(C)n1 [Example 408, 4-[3-(2,6-Dimethyl-pyridin-4-yl)-phenyl]-7-(isobutyl-methyl-amino)-8-trifluoromethyl-1,3-dihydro-benzo[b][1,4]diazepin-2-one]
– | 186 °C | COc1ccc(-c2cccc(C3=Nc4ccc(OC(F)(F)F)cc4NC(=O)C3)c2)cn1 [Example 212, 4-[3-(6-Methoxy-pyridin-3-yl)-phenyl]-8-trifluoromethoxy-1,3-dihydro-benzo[b][1,4]diazepin-2-one]
– | 211 °C | Cc1cc(-c2cccc(C3=Nc4cc(C)c(C(F)(F)F)cc4NC(=O)C3)c2)c(C)cn1 [Example 135, 4-[3-(2,5-Dimethyl-pyridin-4-yl)-phenyl]-7-methyl-8-trifluoromethyl-1,3-dihydro benzo[b][1,4]diazepin-2-one]
– | 225 °C | CCOc1cc2c(cc1C(F)(F)F)NC(=O)CC(c1cccc(-c3cc(C)nc(CO)c3)c1)=N2 [Example 406, 7-Ethoxy-4-[3-(2-hydroxymethyl-6-methyl-pyridin-4-yl)-phenyl]-8-trifluoromethyl-1,3-dihydro-benzo[b][1,4]diazepin-2-one]
– | 201 °C | O=C1CC(c2cccc(-c3ccnc(CO)c3)c2)=Nc2cc(OCC(F)(F)F)c(C(F)(F)F)cc2N1 [Example 286, 4-[3-(2-Hydroxymethyl-pyridin-4-yl)-phenyl]-7-(2,2,2-trifluoro-ethoxy)-8-trifluoromethyl-1,3-dihydro-benzo[b][1,4]diazepin-2-one]
– | 200 °C | CC(C)c1cc(-c2cccc(C3=Nc4cc(Cl)c(C(F)(F)F)cc4NC(=O)C3)c2)ccn1 [Example 273, 7-Chloro-4-[3-(2-isopropyl-pyridin-4-yl)-phenyl]-8-trifluoromethyl-1,3-dihydro benzo[b][1,4]diazepin-2-one]
– | 190 to 191 °C | O=C1CC(c2cccc(-c3ccc(C4CC4)nc3)c2)=Nc2ccc(OC(F)(F)F)cc2N1 [Example 207, 4-[3-(6-Cyclopropyl-pyridin-3-yl)-phenyl]-8-trifluoromethoxy-1,3-dihydro-benzo[b][1,4]diazepin-2-one]
– | 217 °C | CCc1cc(-c2cccc(C3=Nc4cc(Cl)c(C(F)(F)F)cc4NC(=O)C3)c2)ccn1 [Example 156, 7-Chloro-4-[3-(2-ethyl-pyridin-4-yl)-phenyl]-8-trifluoromethyl-1,3-dihydro benzo[b][1,4]diazepin-2-one]

Ki (rat mGlu2 receptor) | melting point | SMILES
– | 223 °C | O=C1CC(c2cccc(-c3ccc(C4CC4)nc3)c2)=Nc2cc(OCC3CC3)c(C(F)(F)F)cc2N1 [Example 196, 7-Cyclopropylmethoxy-4-[3-(6-cyclopropyl-pyridin-3-yl)-phenyl]-8-trifluoromethyl-1,3-dihydro-benzo[b][1,4]diazepin-2-one]
– | 199 to 200 °C | CCOc1cc2c(cc1C(F)(F)F)NC(=O)CC(c1cccc(-c3ccnc(N4CCOCC4)c3)c1)=N2 [Example 385, 7-Ethoxy-4-[3-(2-morpholin-4-yl-pyridin-4-yl)-phenyl]-8-trifluoromethyl-1,3-dihydro-benzo[b][1,4]diazepin-2-one]
– | 257 °C | Cc1cc(-c2cccc(C3=Nc4cc(C)c(C(F)(F)F)cc4NC(=O)C3)c2)cc(C2CC2)n1 [Example 257, 4-[3-(2-Cyclopropyl-6-methyl-pyridin-4-yl)-phenyl]-7-methyl-8-trifluoromethyl-1,3-dihydro-benzo[b][1,4]diazepin-2-one]
– | 200 °C | O=C1CC(c2cccc(-c3ccncc3)c2)=Nc2cc(C(F)(F)F)c(Cl)cc2N1 [Example 100, 8-Chloro-4-(3-pyridin-4-yl-phenyl)-7-trifluoromethyl-1,3-dihydro-benzo[b][1,4]diazepin-2-one]
– | 212 °C | Cc1nccc(-c2cccc(C3=Nc4cc(Cl)c(C(F)(F)F)cc4NC(=O)C3)c2)c1C [Example 143, 7-Chloro-4-[3-(2,3-dimethyl-pyridin-4-yl)-phenyl]-8-trifluoromethyl-1,3-dihydro benzo[b][1,4]diazepin-2-one]
– | 184 °C | CCc1ncccc1-c1cccc(C2=Nc3cc(OCC(F)(F)F)c(C(F)(F)F)cc3NC(=O)C2)c1 [Example 236, 4-[3-(2-Ethyl-pyridin-3-yl)-phenyl]-7-(2,2,2-trifluoro-ethoxy)-8-trifluoromethyl-1,3-dihydro-benzo[b][1,4]diazepin-2-one]
– | 187 to 188 °C | CCOc1cc2c(cc1C(F)(F)F)NC(=O)CC(c1cccc(-c3cccnc3C3CC3)c1)=N2 [Example 227, 4-[3-(2-Cyclopropyl-pyridin-3-yl)-phenyl]-7-ethoxy-8-trifluoromethyl-1,3-dihydro-benzo[b][1,4]diazepin-2-one]
– | 182 °C | O=C1CC(c2cccc(-c3ccnc(CN4CCCC4)c3)c2)=Nc2cc(OCC(F)(F)F)c(C(F)(F)F)cc2N1 [Example 380, 4-[3-(2-Pyrrolidin-1-ylmethyl-pyridin-4-yl)-phenyl]-7-(2,2,2-trifluoro-ethoxy)-8-trifluoromethyl-1,3-dihydro-benzo[b][1,4]diazepin-2-one]
– | 166 to 169 °C | CCOc1ccc2c(c1)N=C(c1cccc(-c3cccnc3)c1)CC(=O)N2 [Example 162, 7-Ethoxy-4-(3-pyridin-3-yl-phenyl)-1,3-dihydro-benzo[b][1,4]diazepin-2-one]
– | 147 to 148 °C | O=C1CC(c2cccc(-c3ccnc(C4CCCC4)c3)c2)=Nc2cc(OCC(F)(F)F)c(C(F)(F)F)cc2N1 [Example 354, 4-[3-(2-Cyclopentyl-pyridin-4-yl)-phenyl]-7-(2,2,2-trifluoro-ethoxy)-8-trifluoromethyl-1,3-dihydro-benzo[b][1,4]diazepin-2-one]
– | 209 to 210 °C | CCCOc1cc2c(cc1C(F)(F)F)NC(=O)CC(c1cccc(-c3ccc(C4CC4)nc3)c1)=N2 [Example 216, 4-[3-(6-Cyclopropyl-pyridin-3-yl)-phenyl]-7-propoxy-8-trifluoromethyl-1,3-dihydro-benzo[b][1,4]diazepin-2-one]
– | 200 to 205 °C | COc1ccc(-c2cccc(C3=Nc4ccc(Cl)cc4NC(=O)C3)c2)cn1 [Example 51, 8-Chloro-4-[3-(6-methoxy-pyridin-3-yl)-phenyl]-1,3-dihydro-benzo[b][1,4]diazepin-2-one]
– | 220 to 225 °C | COc1ccc(-c2cccc(C3=Nc4cc(OCC(F)(F)F)c(C(F)(F)F)cc4NC(=O)C3)c2)cn1 [Example 170, 4-[3-(6-Methoxy-pyridin-3-yl)-phenyl]-7-(2,2,2-trifluoro-ethoxy)-8-trifluoromethyl-1,3-dihydro-benzo[b][1,4]diazepin-2-one]
– | 178 to 180 °C | O=C1CC(c2cccc(-c3ccc(C4CC4)nc3)c2)=Nc2cc(OCC(F)(F)F)ccc2N1 [Example 176, 4-[3-(6-Cyclopropyl-pyridin-3-yl)-phenyl]-7-(2,2,2-trifluoro-ethoxy)-1,3-dihydro-benzo[b][1,4]diazepin-2-one]
– | 197 to 198 °C | CCc1cc2c(cc1C(F)(F)F)NC(=O)CC(c1cccc(-c3cccnc3)c1)=N2 [Example 211, 7-Ethyl-4-(3-pyridin-3-yl-phenyl)-8-trifluoromethyl-1,3-dihydro-benzo[b][1,4]diazepin-2-one]
– | 217 to 222 °C | O=C1CC(c2cccc(-c3ncccn3)c2)=Nc2ccc(Cl)cc2N1 [Example 339, 8-Chloro-4-(3-pyrimidin-2-yl-phenyl)-1,3-dihydro-benzo[b][1,4]diazepin-2-one]
